In the NIST ThermoML archive (doi:10.1016/j.fluid.2016.10.026):

Settings: for mass density / kinematic viscosity / speed of sound / vapor or sublimation pressure: Liquid; for mass density: Vibrating tube method; for surface tension liquid-gas: Drop volume; for kinematic viscosity: Capillary tube (Ostwald / Ubbelohde) method; for speed of sound: Frequency=3 MHz, Sing-around technique in a fixed-path interferometer; for vapor or sublimation pressure: Ebulliometric method (Recirculating still)

CC(=O)c1cccs1 [2-acetylthiophene]
Settings	kinematic viscosity [m2/s]	mass density [kg/m3]	speed of sound [m/s]
313.15 K, 25000 kPa	–	1167.08	–
313.15 K, 30000 kPa	–	1169.85	–
313.15 K, 35000 kPa	–	1172.56	–
313.15 K, 40000 kPa	–	1175.19	–
313.15 K, 45000 kPa	–	1177.74	–
313.15 K, 50000 kPa	–	1180.24	–
313.15 K, 55000 kPa	–	1182.67	–
313.15 K, 60000 kPa	–	1185.04	–
313.15 K, 65000 kPa	–	1187.36	–
315.65 K, 101 kPa	1.58e-06	1149.57	1409
318.15 K, 100 kPa	–	1147.15	–
318.15 K, 101 kPa	1.51e-06	1147.18	1400.3
318.15 K, 2000 kPa	–	1148.56	–
318.15 K, 5000 kPa	–	1150.49	–
318.15 K, 7000 kPa	–	1151.77	–
318.15 K, 10000 kPa	–	1153.65	–
318.15 K, 15000 kPa	–	1156.74	–
318.15 K, 20000 kPa	–	1159.72	–
318.15 K, 25000 kPa	–	1162.64	–
318.15 K, 30000 kPa	–	1165.47	–
318.15 K, 35000 kPa	–	1168.21	–
318.15 K, 40000 kPa	–	1170.9	–
318.15 K, 45000 kPa	–	1173.5	–
318.15 K, 50000 kPa	–	1176.04	–
318.15 K, 55000 kPa	–	1178.53	–
318.15 K, 60000 kPa	–	1180.93	–
318.15 K, 65000 kPa	–	1183.29	–
320.65 K, 101 kPa	1.45e-06	1144.79	1391.8
323.15 K, 100 kPa	–	1142.34	–
323.15 K, 101 kPa	1.39e-06	1142.39	1383.4
323.15 K, 2000 kPa	–	1143.79	–
323.15 K, 5000 kPa	–	1145.78	–
323.15 K, 7000 kPa	–	1147.09	–
323.15 K, 10000 kPa	–	1149.02	–
323.15 K, 15000 kPa	–	1152.17	–
323.15 K, 20000 kPa	–	1155.23	–
323.15 K, 25000 kPa	–	1158.22	–
323.15 K, 30000 kPa	–	1161.08	–
323.15 K, 35000 kPa	–	1163.89	–
323.15 K, 40000 kPa	–	1166.63	–
323.15 K, 45000 kPa	–	1169.28	–
323.15 K, 50000 kPa	–	1171.88	–
323.15 K, 55000 kPa	–	1174.4	–
323.15 K, 60000 kPa	–	1176.86	–
323.15 K, 65000 kPa	–	1179.25	–
325.65 K, 101 kPa	1.34e-06	1140	1375
328.15 K, 100 kPa	–	1137.56	–
328.15 K, 101 kPa	1.29e-06	1137.61	1366.5
328.15 K, 2000 kPa	–	1139.02	–
328.15 K, 5000 kPa	–	1141.06	–
328.15 K, 7000 kPa	–	1142.39	–
328.15 K, 10000 kPa	–	1144.38	–
328.15 K, 15000 kPa	–	1147.6	–
328.15 K, 20000 kPa	–	1150.78	–
328.15 K, 25000 kPa	–	1153.79	–
328.15 K, 30000 kPa	–	1156.77	–
328.15 K, 35000 kPa	–	1159.56	–
328.15 K, 40000 kPa	–	1162.34	–
328.15 K, 45000 kPa	–	1165.07	–
328.15 K, 50000 kPa	–	1167.69	–
328.15 K, 55000 kPa	–	1170.28	–
328.15 K, 60000 kPa	–	1172.79	–
328.15 K, 65000 kPa	–	1175.21	–
330.65 K, 101 kPa	1.24e-06	1135.21	1358.1
333.15 K, 100 kPa	–	1132.76	–
333.15 K, 101 kPa	1.2e-06	1132.81	1349.5
333.15 K, 2000 kPa	–	1134.24	–
333.15 K, 5000 kPa	–	1136.33	–
333.15 K, 7000 kPa	–	1137.7	–
333.15 K, 10000 kPa	–	1139.72	–
333.15 K, 15000 kPa	–	1143.11	–
333.15 K, 20000 kPa	–	1146.25	–
333.15 K, 25000 kPa	–	1149.39	–
333.15 K, 30000 kPa	–	1152.35	–
333.15 K, 35000 kPa	–	1155.23	–
333.15 K, 40000 kPa	–	1158.08	–
333.15 K, 45000 kPa	–	1160.83	–
333.15 K, 50000 kPa	–	1163.52	–
333.15 K, 55000 kPa	–	1166.14	–
333.15 K, 60000 kPa	–	1168.68	–
333.15 K, 65000 kPa	–	1171.17	–
335.65 K, 101 kPa	1.16e-06	1130.41	1340.8
338.15 K, 100 kPa	–	1127.97	–
338.15 K, 101 kPa	1.12e-06	1128.01	1332.2
338.15 K, 2000 kPa	–	1129.47	–
338.15 K, 5000 kPa	–	1131.61	–
338.15 K, 7000 kPa	–	1133.01	–
338.15 K, 10000 kPa	–	1135.08	–
338.15 K, 15000 kPa	–	1138.55	–
338.15 K, 20000 kPa	–	1141.78	–
338.15 K, 25000 kPa	–	1144.86	–
338.15 K, 30000 kPa	–	1147.94	–
338.15 K, 35000 kPa	–	1150.94	–
338.15 K, 40000 kPa	–	1153.82	–
338.15 K, 45000 kPa	–	1156.64	–
338.15 K, 50000 kPa	–	1159.38	–
338.15 K, 55000 kPa	–	1162.04	–
338.15 K, 60000 kPa	–	1164.64	–
338.15 K, 65000 kPa	–	1167.11	–

Settings	surface tension liquid-gas [mN/m]	vapor or sublimation pressure [kPa]
315.65 K	41.14	–
318.15 K	40.87	–
320.65 K	40.58	–
323.15 K	40.27	–
325.65 K	39.97	–
328.15 K	39.7	–
330.65 K	39.43	–
333.15 K	39.12	–
335.65 K	38.88	–
336.16 K	–	0.305
338.15 K	38.58	–
340.77 K	–	0.4
342.94 K	–	0.45
345.74 K	–	0.54
350.41 K	–	0.69
356.58 K	–	0.955
362.84 K	–	1.295
365.84 K	–	1.545
371.37 K	–	2.02
376.26 K	–	2.52
383.49 K	–	3.53
389.55 K	–	4.545
394.16 K	–	5.5
400.53 K	–	7.065
407.19 K	–	9.015
412.74 K	–	11.05
417.12 K	–	13.02
421.69 K	–	15.2
423.25 K	–	15.99
426.08 K	–	17.63
429.93 K	–	20.05
433.16 K	–	22.2
435.59 K	–	24.04
438.37 K	–	26.19
440.66 K	–	28.12
442.49 K	–	29.8
445.02 K	–	32.16
